Experimental data: the NIST ThermoML archive (doi:10.1021/je3010062)
± gives the expanded uncertainty stated by the source.

Settings: 101.33 kPa, Liquid; for viscosity: Concentric cylinders viscometry; for mass density: Vibrating tube method; for electrical conductivity: syringe-type cell with a pair of platinum electrodes

Question: Which results are given for CC[N+](C)(C)CCOCCOC.O=S(=O)([N-]S(=O)(=O)C(F)(F)F)C(F)(F)F?
Answer: viscosity (273.15 K): 243.5 ± 11 mPa·s; mass density (273.15 K): 1414.1 ± 1.5 kg/m3; electrical conductivity (273.15 K): 0.0681 ± 0.0027 S/m; viscosity (278.15 K): 173.6 ± 7.8 mPa·s; mass density (278.15 K): 1409.65 ± 1.5 kg/m3; electrical conductivity (278.15 K): 0.0936 ± 0.0037 S/m; viscosity (283.15 K): 127.5 ± 5.6 mPa·s; mass density (283.15 K): 1404.97 ± 1.5 kg/m3; electrical conductivity (283.15 K): 0.125 ± 0.005 S/m; viscosity (288.15 K): 96.35 ± 4.1 mPa·s; mass density (288.15 K): 1400.31 ± 1.5 kg/m3; electrical conductivity (288.15 K): 0.162 ± 0.0065 S/m; viscosity (293.15 K): 74.27 ± 3.1 mPa·s; mass density (293.15 K): 1395.68 ± 1.5 kg/m3; electrical conductivity (293.15 K): 0.206 ± 0.0082 S/m; viscosity (298.15 K): 58.57 ± 2.4 mPa·s; mass density (298.15 K): 1391.07 ± 1.5 kg/m3; electrical conductivity (298.15 K): 0.257 ± 0.01 S/m; viscosity (303.15 K): 47.19 ± 1.9 mPa·s; mass density (303.15 K): 1386.49 ± 1.5 kg/m3; electrical conductivity (303.15 K): 0.315 ± 0.013 S/m; viscosity (313.15 K): 32.03 ± 1.3 mPa·s; mass density (313.15 K): 1377.4 ± 1.5 kg/m3; electrical conductivity (313.15 K): 0.451 ± 0.018 S/m; viscosity (323.15 K): 22.89 ± 0.94 mPa·s; mass density (323.15 K): 1368.39 ± 1.5 kg/m3; electrical conductivity (323.15 K): 0.616 ± 0.025 S/m; viscosity (333.15 K): 17.02 ± 0.69 mPa·s; mass density (333.15 K): 1359.45 ± 1.4 kg/m3; electrical conductivity (333.15 K): 0.81 ± 0.032 S/m; viscosity (343.15 K): 13.14 ± 0.54 mPa·s; mass density (343.15 K): 1350.57 ± 1.4 kg/m3; electrical conductivity (343.15 K): 1.02 ± 0.041 S/m; viscosity (353.15 K): 10.39 ± 0.42 mPa·s; mass density (353.15 K): 1341.75 ± 1.4 kg/m3; electrical conductivity (353.15 K): 1.27 ± 0.051 S/m; viscosity (363.15 K): 8.433 ± 0.34 mPa·s; mass density (363.15 K): 1332.98 ± 1.4 kg/m3

Question: Which results are given for CCCCCCC[N+](C)(C)CC.O=S(=O)([N-]S(=O)(=O)C(F)(F)F)C(F)(F)F?
Answer: viscosity (273.15 K): 944.3 ± 53 mPa·s; mass density (273.15 K): 1311.95 ± 1.4 kg/m3; electrical conductivity (273.15 K): 0.0157 ± 0.00063 S/m; viscosity (278.15 K): 634.1 ± 34 mPa·s; mass density (278.15 K): 1307.78 ± 1.4 kg/m3; electrical conductivity (278.15 K): 0.023 ± 0.00092 S/m; viscosity (283.15 K): 437.8 ± 22 mPa·s; mass density (283.15 K): 1303.56 ± 1.4 kg/m3; electrical conductivity (283.15 K): 0.0328 ± 0.0013 S/m; viscosity (288.15 K): 310.5 ± 15 mPa·s; mass density (288.15 K): 1299.38 ± 1.4 kg/m3; electrical conductivity (288.15 K): 0.0454 ± 0.0018 S/m; viscosity (293.15 K): 225.7 ± 10 mPa·s; mass density (293.15 K): 1295.2 ± 1.4 kg/m3; electrical conductivity (293.15 K): 0.0614 ± 0.0024 S/m; viscosity (298.15 K): 167.7 ± 7.5 mPa·s; mass density (298.15 K): 1291 ± 1.4 kg/m3; electrical conductivity (298.15 K): 0.081 ± 0.0032 S/m; viscosity (303.15 K): 127.6 ± 5.5 mPa·s; mass density (303.15 K): 1286.82 ± 1.4 kg/m3; electrical conductivity (303.15 K): 0.105 ± 0.0042 S/m; viscosity (313.15 K): 77.77 ± 3.3 mPa·s; mass density (313.15 K): 1278.51 ± 1.4 kg/m3; electrical conductivity (313.15 K): 0.167 ± 0.0067 S/m; viscosity (323.15 K): 50.63 ± 2.1 mPa·s; mass density (323.15 K): 1270.28 ± 1.3 kg/m3; electrical conductivity (323.15 K): 0.249 ± 0.01 S/m; viscosity (333.15 K): 34.68 ± 1.4 mPa·s; mass density (333.15 K): 1262.09 ± 1.3 kg/m3; electrical conductivity (333.15 K): 0.353 ± 0.014 S/m; viscosity (343.15 K): 24.84 ± 1 mPa·s; mass density (343.15 K): 1253.97 ± 1.3 kg/m3; electrical conductivity (343.15 K): 0.48 ± 0.019 S/m; viscosity (353.15 K): 18.49 ± 0.76 mPa·s; mass density (353.15 K): 1245.9 ± 1.3 kg/m3; electrical conductivity (353.15 K): 0.631 ± 0.025 S/m; viscosity (363.15 K): 14.18 ± 0.58 mPa·s; mass density (363.15 K): 1237.87 ± 1.3 kg/m3
